Results reported in patent EP1038880B1, “Androstanes and pregnanes for allosteric modulation of GABA receptor” (priority 1994, dated 1995).

Tests used:
[1] = test system: GR complex; assay: [35S]TBPS binding assay (inhibition of [35S]TBPS binding, cerebral cortex P2 homogenate); set-up: species or system rat
In short: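 Rat (male Sprague-Dawley) cortical P2 homogenate (0.5 mg protein) in 50 mM Na/K phosphate pH 7.4, 200 mM NaCl, incubated with 2 nM [35S]TBPS plus steroid test compounds (DMSO) in presence of GABA plus (+)bicuculline, 25°C, 90 min. Filtration, scintillation counting; nonspecific binding defined with […].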

[2] = test system: Rats; assay: Vogel test; type: in vivo; settings: i.c.v., g-CD
Excerpt: The Vogel test is based on the development of a conflict between a highly motivated behavior and an aversion. For this test, the strong motivation is thirst. The animal is water deprived for 12-16 hrs to produce the motivation to drink. During the training period the animals are exposed to the testing environment so they become accustomed to the drinking spout and minimize the fear of a novel environment. Following training, the animals are allowed access to water for 2 hrs. During this time, the animals will drink and eat their normal amount of water and food, compensating for the deprivation time. However, this schedule still produces a strong motivation to drink during the testing period.
Having been deprived of water for twelve to sixteen hours, an animal is placed in a test cage where it is allowed to drink freely for five minutes. This period is used to habituate the animal to the environment and the drinking spout. Following the training period, animals have access to water and food in their home cage for 2 hrs. Food is available at all times. Twenty-four hours later, drug is administered to the animal intracecebroventricularly.
After an indicated delay started from the time of injection the animal is again placed in the test cage for ten minutes. A computer counts each time the animal licks, and after every twentieth lick administers a mild electric stimulus across the tongue and/or feet. The electrical stimulus consists of a 0.6 mA current with a duration of 100 msec. This procedure produces a state of conflict for the animal that is reduced by the administration of clinically used anxiolytic agents (i.e., Valium). For dose-response curves, separate groups of animals are injected with increasing doses of test drug and are tested at a predetermined time.
Table 10. Anxiolytic Activity in Vogel Test in Rats

[3] = target: T1, Hippocampal Mineralocorticoid Receptors (Rattus norvegicus, UniProt P22199); assay: Inhibition of 3H-aldosterone binding, brain cytosol; set-up: species or system rats; settings: competitor 10^-6M; 3 nM 3H-aldosterone, RU28362 0.5 µM
T1 construct: To isolate the mineralocorticoid receptor, brain cytosol fractions were prepared; from tissue; host or cells: rat brain (hippocampal) cytosol
T1 sequence (P22199 1-981): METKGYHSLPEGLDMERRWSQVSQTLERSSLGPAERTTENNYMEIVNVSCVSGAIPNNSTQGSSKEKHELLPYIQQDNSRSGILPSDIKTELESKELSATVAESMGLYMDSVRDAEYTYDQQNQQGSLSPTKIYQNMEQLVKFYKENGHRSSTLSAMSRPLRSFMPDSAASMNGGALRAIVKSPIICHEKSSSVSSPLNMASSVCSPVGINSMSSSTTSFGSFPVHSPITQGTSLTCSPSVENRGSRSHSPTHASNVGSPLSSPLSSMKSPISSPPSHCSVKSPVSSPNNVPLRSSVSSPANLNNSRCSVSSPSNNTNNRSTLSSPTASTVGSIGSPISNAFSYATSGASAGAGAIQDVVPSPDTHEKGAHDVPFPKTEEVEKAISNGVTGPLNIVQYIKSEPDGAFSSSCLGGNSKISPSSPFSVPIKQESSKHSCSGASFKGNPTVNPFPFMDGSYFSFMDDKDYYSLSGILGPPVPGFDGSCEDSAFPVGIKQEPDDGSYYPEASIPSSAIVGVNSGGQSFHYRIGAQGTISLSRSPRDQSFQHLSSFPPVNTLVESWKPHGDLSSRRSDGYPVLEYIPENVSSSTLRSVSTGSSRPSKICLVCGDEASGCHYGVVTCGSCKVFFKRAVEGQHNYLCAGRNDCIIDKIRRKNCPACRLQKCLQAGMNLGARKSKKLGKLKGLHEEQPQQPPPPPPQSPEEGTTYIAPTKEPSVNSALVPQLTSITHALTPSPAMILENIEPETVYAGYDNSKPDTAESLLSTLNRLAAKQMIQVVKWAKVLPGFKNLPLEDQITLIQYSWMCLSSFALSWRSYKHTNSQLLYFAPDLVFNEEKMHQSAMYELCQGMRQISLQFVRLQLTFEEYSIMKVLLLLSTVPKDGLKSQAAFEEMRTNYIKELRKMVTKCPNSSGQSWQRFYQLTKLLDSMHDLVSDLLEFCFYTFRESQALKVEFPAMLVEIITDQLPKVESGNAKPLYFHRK
Description: (§1) Various hormonal activities of representative neuroactive steroids were further studied through testing their potential estrogenic, mineralocorticoid and glucocorticoid activities. These activities were analyzed by monitoring the ability of the compounds to inhibit binding of the steroid hormones to their respective hormone receptors.
In Table 3, rats were adrenalectomized 3 days prior to sacrifice. […] Table 2. Inhibition of 3H-Progesterone Binding to the Bovine Uteral Progesterone Receptors
Table 3. Inhibition of 3H-Aldosterone Binding to Hippocampal Mineralocorticoid Receptors

[4] = test system: Sprague-Dawley rats; assay: Geller-Seifter conflict test; type: in vivo
Excerpt: This animal model of human anxiety utilizes a conditioned state of conflict in rats to ascertain the anxiolytic properties of drugs. […] The first includes bar pressing under a variable […] schedule without punishment. The second component is a fixed ratio schedule with each bar press resulting in a positive reinforcement and a punishment. The punished component produces a state of conflict within the animal. […] An anxiolytic response would increase the punished responding without affecting the unpunished responding.
Rats were housed individually under a 12-hour light-dark cycle with lights on from 0700-1900.
Rats were trained in test chambers (Coulbourn instruments) with a lever mounted in one wall, a small dipper that delivered the 0.1-mL milk reward (1 part Eagle condensed : milk 2 parts water), and a metal grid floor through which the foot-shock punishment was administered. A DEC PDP 11/73 minicomputer nmning SKED (State Systems) was used for programming and recording.
Rates initially learned to respond on a continuous reinforcement schedule and progressed rapidly to 30-sec, 1-min, and 2-min variable interval (VI) schedules. On the continuous reinforcement schedule, rats received milk reward following every lever press; on the VI schedules, milk rewards were available at infrequent and variable intervals, eventually at an average of once every 2 min. […] During conflict periods, which were signalled by the presentation of a light and a tone, the continuous reinforcement schedule was again in force and each lever press delivered both a milk reward and a brief ([…]) foot-shock Shock intensity was 0.2 mA initially, and.was increased daily in increments of 0.02 mA in order to gradually suppress lever pressing to 5 responses or less per conflict period. […] Drug-induced increases in the rate of punished responses were taken as an index of antianxiety activity, while decreases in the rate of unpunished responses were taken as an index of response depression or sedation.

[5] = test system: Bovine Uteral Progesterone Receptors; assay: Inhibition of 3H-progesterone binding, uterus cytosol; settings: competitor 10^-6M; 3H-progesterone 0.15 nM
Description: The data presented were obtained by performing assays in accordance with the procedures described in et al. 1988 previously to determine the effect of progesterone metabolites and their derivatives and the progestin R5020 on the binding of [^3H]R5020 to the progesterone receptor in rat uterus (Gee et al. 1988).
^3H-progesterone (0.15 nM) was incubated with the rat uterus cytosol in the presence of the test compounds. The specific binding were determined after incubation and compared to the control incubation without the compounds. The data are expressed as percent inhibition of binding.
In Table 3, rats were adrenalectomized 3 days prior to sacrifice. To isolate the mineralocorticoid receptor, brain cytosol fractions were prepared as describe in Gee, et al. 1988. The drugs were incubated with 3 nM of ^3H-aldosterone (the specific ligand for the mineralocorticoid receptor) in the presence of the selective type II agonist RU28362 (0.5 µM) which blocks ^3H-aldosterone binding to the type II (glucocorticoid) receptors. Table 2. Inhibition of 3H-Progesterone Binding to the Bovine Uteral Progesterone Receptors

[6] = target: T2, Glucocorticoid Receptors (Rattus norvegicus, UniProt P06536); assay: Inhibition of 3H-dexamethasone binding, brain cytosol; set-up: species or system rats; dose or concentration left out as unconfirmed; settings: read-out: % of Inhibition
T2 construct: from tissue; host or cells: rat brain cytosol
T2 sequence (P06536 1-795): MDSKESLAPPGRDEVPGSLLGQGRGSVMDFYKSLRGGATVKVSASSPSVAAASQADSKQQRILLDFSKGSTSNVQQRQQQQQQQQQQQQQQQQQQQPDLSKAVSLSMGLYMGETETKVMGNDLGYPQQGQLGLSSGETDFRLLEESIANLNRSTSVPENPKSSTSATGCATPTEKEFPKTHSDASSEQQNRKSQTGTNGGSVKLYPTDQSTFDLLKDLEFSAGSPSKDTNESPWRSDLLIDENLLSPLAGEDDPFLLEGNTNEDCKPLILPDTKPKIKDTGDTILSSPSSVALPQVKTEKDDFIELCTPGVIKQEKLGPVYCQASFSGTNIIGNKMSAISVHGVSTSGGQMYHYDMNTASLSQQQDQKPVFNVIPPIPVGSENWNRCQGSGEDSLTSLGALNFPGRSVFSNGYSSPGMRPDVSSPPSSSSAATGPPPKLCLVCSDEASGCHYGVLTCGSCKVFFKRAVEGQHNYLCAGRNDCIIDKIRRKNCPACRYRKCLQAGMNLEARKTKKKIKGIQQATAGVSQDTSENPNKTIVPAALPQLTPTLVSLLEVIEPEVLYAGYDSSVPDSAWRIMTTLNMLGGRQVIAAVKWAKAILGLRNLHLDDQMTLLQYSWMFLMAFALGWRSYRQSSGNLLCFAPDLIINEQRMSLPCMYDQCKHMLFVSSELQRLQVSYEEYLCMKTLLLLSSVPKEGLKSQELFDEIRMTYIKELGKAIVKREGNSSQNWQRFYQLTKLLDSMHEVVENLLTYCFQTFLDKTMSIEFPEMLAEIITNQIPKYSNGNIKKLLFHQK
Description: as §1
For Table 4, brain cytosol fractions were prepared as for Table 3, and the compounds were incubated with 3 nM of ^3H-dexamethasone (the specific ligand for the glucocorticoid receptor).

[7] = test system: (+)bicuculline; assay: Anticonvulsant test against (+)bicuculline; type: in vivo, mice; settings: Mus musculus, read-out: ED50 BIC
Description: (§2) The anticonvulsant tests are similar to that described above. […] The number of animals with tonic and/or clonic convulsions was recorded. In the maximal electroshock test, 50 mA of current at 60 Hz was delivered through corneal electrodes for 200 msec to induce tonic seizure. The ability of compounds to abolish the tonic component was defined as the endpoint. General CNS depression potential was determined by a rotorod test 10 minutes after the injection of compounds where the number of mice staying on a rotating (6 rpm) rod for 1 minute in one of the three trials was determined. […] Table 7. Anticonvulsant Activity of Exemplified Neuroactive Steroids and those of Selected Clinically Useful Anticonvulsants in Mice

[8] = test system: metrazol induced convulsions; assay: animal or person; type: in vivo, mice; settings: Mus musculus; metrazol 85 mg/kg s.c., steroids i.p., mice
[9] = test system: picrotoxin; assay: Anticonvulsant test against picrotoxin; type: in vivo, mice; settings: Mus musculus, read-out: ED50 PICRO
Description: as §2

[10] = test system: strychnine; assay: Anticonvulsant test against strychnine; type: in vivo, mice; settings: Mus musculus, read-out: ED50 STR
Description: as §2

[11] = test system: tonic seizure; assay: Maximal electroshock test; type: in vivo; settings: Mus musculus, ip, steroids i.p., mice
Description: as §2

With C[C@H](O)[C@H]1CC[C@H]2[C@@H]3CC[C@H]4C[C@H](O)CC[C@]4(C)[C@H]3CC[C@]12C [5α-pregnan-3α,20α-diol, reference compound] the “modulation of [35S]TBPS binding, in words” value ([1]; even at very high concentrations (Figure 6)) was “partially modulate”, the “Vogel (%of control)” value ([2]; 10 µg/kg) was 283.3 %of control and the “Vogel (%of control)” value ([2]; 20 µg/kg) was 267.3 %of control. It also gave an inhibition at 1 µM [3] of 0%.

CC(=O)C1CCC2C3CCC4CC(O)(C(F)(F)F)CCC4(C)C3C(N(C)C)CC12C (stereo not drawn) [11α-N,N-Dimethylamino-3α-hydroxy-3β-trifluoromethyl-5β pregnan-20-one] was tested, and the “Geller/ Seifter (% of control)” value ([4]; IP, citrate, 20 mg/kg) was 145 % of control.

For CC(C)(O)[C@H]1CC[C@H]2[C@@H]3CC[C@H]4C[C@H](O)CC[C@]4(C)[C@H]3CC[C@]12C [5α-pregnan-20-dimethyl-3α,20-diol], the inhibition at 1 µM [3] was 0%, the “% of Inhibition” value [5] was 0% and the inhibition [6] was 2.6%.

For COC[C@@]1(O)CC[C@@]2(C)[C@@H](CC[C@@H]3[C@@H]2CC[C@]2(C)[C@@H](C(C)=O)CC[C@@H]32)C1 [3α-Hydroxy-3β-methoxymethyl-5α-pregnan-20-one], the “Geller/ Seifter (% of control)” value ([4]; IP, 50% hpbcd, 10 mg/kg) was 958 % of control.

With CCOC[C@@]1(O)CC[C@@]2(C)[C@@H](CC[C@@H]3[C@@H]2CC[C@]2(C)[C@@H](C(C)=O)CC[C@@H]32)C1 [3α-hydroxy-3β-ethoxymethyl-5α-pregnan-20-one] the “Geller/ Seifter (% of control)” value ([4]; IP, 50% hpbcd, 40 mg/kg) was 3743 % of control.

For CC(=O)[C@H]1CC[C@H]2[C@@H]3CC[C@H]4C[C@](C)(O)CC[C@]4(C)[C@H]3CC[C@]12C [3α-hydroxy-3β-methyl-5α-pregnan-20-one], the ED50 [7] was 61.9 mg/kg, the ED50 [8] was 6.3 mg/kg and the ED50 [9] was 35.4 mg/kg. The inhibition at 1 µM [3] was 3.2%, the “% of Inhibition” value [5] was 4% and the ED50 [10] was over 100 mg/kg. It also gave an inhibition [6] of 0.6% and an ED50 [11] of over 100 mg/kg.

With COCC1(O)CCC2(C)C(CCC3C2CCC2(C)C(C(=O)CSS(=O)(=O)[O-])CCC32)C1.[Na+] (stereo not drawn) [sodium S-(3α-hydroxy-3β-methoxymethyl-5α-pregnan-20-on-21-yl) thiosulfate] the IC50 ([1]; 2 nM [35S]TBPS, rat cerebral cortex P2 homogenate) was 0.132 µM, the IMAX ([1]; maximum inhibition of [35S]TBPS binding) was 103% and the “Geller/ Seifter (% of control)” value ([4]; PO, water, 32 mg/kg) was 4487.5 % of control.

In the case of C[C@]12CC[C@@H](O)C[C@H]1CC[C@@H]1[C@@H]2CC[C@]2(C)[C@@H](C(=O)CO)CC[C@@H]12 [5β-pregnan-3α,21-diol-20-one], the inhibition at 1 µM [3] is reported as 13.8%, the “% of Inhibition” value [5] is reported as 6% and the inhibition [6] is reported as 8.2%.
